Laboratory results: patent US20140294970A1, “STABILIZED PHARMACEUTICAL SUB-MICRON SUSPENSIONS AND METHODS OF FORMING SAME” (Alcon Research, Ltd., priority 2008, published 2014)

System: FGFR
Assay: Kinase inhibition, cell-free enzymatic assay
Format: biochemical
Settings: 1 mM ATP
Protocol: All data reported as IC50 values for kinase inhibition in cell-free enzymatic assays. Values determined @ 1 mM ATP.

Molecule `Cc1ccc(F)c(NC(=O)Nc2ccc(-c3cccc4[nH]nc(N)c34)cc2)c1` [RTK Inhibitor, N-[4-(3-amino-1H-indazol-4-yl)phenyl]-N′-(2-fluoro-5-methylphenyl) urea] has an IC50 greater than 12.5 µM.
